In patent US20020137929A1, “1 - (3-heterocyclylphenyl) isothiourea, -isourea, -guanidine and -amidine herbicidal agents” (Intellectual Property Department, BASF Aktiengesellschaft, priority 1998, published 2002):

Columns and labels:
AMBEL (Ragweed, Common) [1] = test: Postemergence herbicidal evaluation; type: in vivo, Ambrosia artemisifolia; conditions: postemergence
In short: (§1)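 Visual 0-9 injury score (stand, vigor, malformation, size, chlorosis, appearance vs untreated) taken four to five weeks post-spray, averaged across repeat tests. Test plants about two weeks old; foliar spray of acetone/water (1:1) with 0.5% surfactant delivering ~0.0156-0.500 kg active/ha.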

[2] = system: IPOHE (Morningglory, Ivyleaf); test: Postemergence herbicidal evaluation; type: in vivo, Ipomoea hederacea; conditions: postemergence
In short: as §1

[3] = system: GLXMAW (Soybean, Williams); test: Postemergence herbicidal evaluation; type: in vivo, Glycine max, (L.) Merr. cv Williams; conditions: postemergence
In short: as §1

ZEAMX (Corn, Field) = test: Postemergence herbicidal evaluation; type: in vivo, Zea mays; conditions: postemergence
In short: as §1

ABUTH (Velvetleaf) = test: Preemergence herbicidal evaluation; type: in vivo, Abutilon theophrasti; conditions: rated 4-5 weeks after treatment
In short: (§2)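 Scores use a 0–9 visual scale covering stand, vigor, malformation, size and chlorosis relative to controls, rated four to five weeks after treatment. Before emergence, soil-planted seeds were sprayed with compound in aqueous acetone at roughly 0.0156–0.500 kg/ha and held in the greenhouse.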

AMBEL (Ragweed, Common) [4] = test: Preemergence herbicidal evaluation; type: in vivo, Ambrosia artemisifolia; conditions: rated 4-5 weeks after treatment
In short: as §2

CASOB (Sicklepod) = test: Preemergence herbicidal evaluation; type: in vivo, Cassia obtusifolia; conditions: rated 4-5 weeks after treatment
In short: as §2

GALAP (Galium) = test: Preemergence herbicidal evaluation; type: in vivo, Galium aparine; conditions: rated 4-5 weeks after treatment
In short: as §2

ECHCG (Barnyardgrass) = test: Preemergence herbicidal evaluation; type: in vivo, Echinochloa crus-galli; conditions: rated 4-5 weeks after treatment
In short: as §2

SETVI (Foxtail, Green) = test: Preemergence herbicidal evaluation; type: in vivo, Setaria viridis; conditions: rated 4-5 weeks after treatment
In short: as §2

[5] = system: GLXMAW (Soybean, Williams); test: Preemergence herbicidal evaluation; type: in vivo, Glycine max, (L.) Merr. cv Williams; conditions: rated 4-5 weeks after treatment
In short: as §2

CYPSE (Flatsedge) = test: Preemergence weed control under flooded paddy conditions; type: in vivo, Cyperus serotinus; conditions: rated 3-4 weeks after treatment
In short: (§3)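 Flooded-pot preemergence screen with silt loam and seeds in the upper 0.5 cm. Dose about 0.0313 to 0.500 kg/ha, delivered into flood water; visual 0-9 score after 3 to 4 weeks.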

[6] = system: SAGPY (Arrowhead (Pygmaea)); test: as above; type: in vivo, Sagittaria pygmaea; conditions: rated 3-4 weeks after treatment
In short: as §3

[7] = system: ECHORC (Watergrass (Calif.)); test: Postemergence weed control under flooded paddy conditions; type: in vivo, Echinochloa oryzoides; conditions: postemergence weeds, rated 3 to 4 weeks after treatment
In short: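 Injury ratings (0–9 scale covering stand, vigor, malformation, size, chlorosis and overall appearance versus control) were made three to four weeks after treatment. Test material, about 0.0313 to 0.500 kg/ha a.i. in 50/50 v/v aqueous/acetone, was added to flood water 1.5 to 3 cm deep over 3 to 5 cm weeds and 1.5 to 2.5 leaf rice.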

Structure (SMILES): Cn1c(C(F)(F)F)cc(=O)n(-c2cc(N=C3SCC(=O)N3CC(=O)OCC#N)c(Cl)cc2F)c1=O [Compound 109, 2-{{2-Chloro-5-[3,6-dihydro-3-methyl-2,6-dioxo-4-(trifluoromethyl)-1(2H)-pyrimidinyl]-4-fluorophenyl}imino}-4-oxo-3-thiazolidineacetic acid, ester with glycolonitrile]
- herbicidal rating AMBEL (AMBEL (Ragweed, Common) [1]; rate 0.0158 kg/ha): 9.0
- herbicidal rating AMBEL (AMBEL (Ragweed, Common) [1]; rate 0.0315 kg/ha): 9.0
- herbicidal rating AMBEL (AMBEL (Ragweed, Common) [1]; rate 0.0630 kg/ha): 9.0
- herbicidal rating IPOHE ([2]; rate 0.0158 kg/ha): 9.0
- herbicidal rating IPOHE ([2]; rate 0.0315 kg/ha): 9.0
- herbicidal rating IPOHE ([2]; rate 0.0630 kg/ha): 9.0
- herbicidal rating GLXMAW ([3]; rate 0.0158 kg/ha): 7.0
- herbicidal rating GLXMAW ([3]; rate 0.0315 kg/ha): 8.0
- herbicidal rating GLXMAW ([3]; rate 0.0630 kg/ha): 8.0
- herbicidal rating ZEAMX (ZEAMX (Corn, Field); rate 0.0158 kg/ha): 6.5
- herbicidal rating ZEAMX (ZEAMX (Corn, Field); rate 0.0315 kg/ha): 6.5
- herbicidal rating ZEAMX (ZEAMX (Corn, Field); rate 0.0630 kg/ha): 7.0
- Preemergence herbicidal rating ABUTH (ABUTH (Velvetleaf); rate 0.0156 kg/ha): 6.5
- Preemergence herbicidal rating ABUTH (ABUTH (Velvetleaf); rate 0.0313 kg/ha): 9.0
- Preemergence herbicidal rating ABUTH (ABUTH (Velvetleaf); rate 0.0625 kg/ha): 9.0
- Preemergence herbicidal rating ABUTH (ABUTH (Velvetleaf); rate 0.1250 kg/ha): 9.0
- Preemergence herbicidal rating ABUTH (ABUTH (Velvetleaf); rate 0.2500 kg/ha): 9.0
- Preemergence herbicidal rating ABUTH (ABUTH (Velvetleaf); rate 0.5000 kg/ha): 9.0
- Preemergence herbicidal rating AMBEL (AMBEL (Ragweed, Common) [4]; rate 0.0156 kg/ha): 3.0
- Preemergence herbicidal rating AMBEL (AMBEL (Ragweed, Common) [4]; rate 0.0313 kg/ha): 3.0
- Preemergence herbicidal rating AMBEL (AMBEL (Ragweed, Common) [4]; rate 0.0625 kg/ha): 8.0
- Preemergence herbicidal rating AMBEL (AMBEL (Ragweed, Common) [4]; rate 0.1250 kg/ha): 9.0
- Preemergence herbicidal rating AMBEL (AMBEL (Ragweed, Common) [4]; rate 0.2500 kg/ha): 9.0
- Preemergence herbicidal rating AMBEL (AMBEL (Ragweed, Common) [4]; rate 0.5000 kg/ha): 9.0
- Preemergence herbicidal rating CASOB (CASOB (Sicklepod); rate 0.0156 kg/ha): 6.5
- Preemergence herbicidal rating CASOB (CASOB (Sicklepod); rate 0.0313 kg/ha): 4.0
- Preemergence herbicidal rating CASOB (CASOB (Sicklepod); rate 0.0625 kg/ha): 5.5
- Preemergence herbicidal rating CASOB (CASOB (Sicklepod); rate 0.1250 kg/ha): 6.5
- Preemergence herbicidal rating CASOB (CASOB (Sicklepod); rate 0.2500 kg/ha): 9.0
- Preemergence herbicidal rating CASOB (CASOB (Sicklepod); rate 0.5000 kg/ha): 9.0
- Preemergence herbicidal rating GALAP (GALAP (Galium); rate 0.0156 kg/ha): 3.0
- Preemergence herbicidal rating GALAP (GALAP (Galium); rate 0.0313 kg/ha): 3.0
- Preemergence herbicidal rating GALAP (GALAP (Galium); rate 0.0625 kg/ha): 3.0
- Preemergence herbicidal rating GALAP (GALAP (Galium); rate 0.1250 kg/ha): 4.0
- Preemergence herbicidal rating GALAP (GALAP (Galium); rate 0.2500 kg/ha): 4.0
- Preemergence herbicidal rating ECHCG (ECHCG (Barnyardgrass); rate 0.0156 kg/ha): 1.5
- Preemergence herbicidal rating ECHCG (ECHCG (Barnyardgrass); rate 0.0313 kg/ha): 2.5
- Preemergence herbicidal rating ECHCG (ECHCG (Barnyardgrass); rate 0.0625 kg/ha): 4.0
- Preemergence herbicidal rating ECHCG (ECHCG (Barnyardgrass); rate 0.1250 kg/ha): 7.0
- Preemergence herbicidal rating ECHCG (ECHCG (Barnyardgrass); rate 0.2500 kg/ha): 8.5
- Preemergence herbicidal rating ECHCG (ECHCG (Barnyardgrass); rate 0.5000 kg/ha): 9.0
- Preemergence herbicidal rating SETVI (SETVI (Foxtail, Green); rate 0.0156 kg/ha): 5.5
- Preemergence herbicidal rating SETVI (SETVI (Foxtail, Green); rate 0.0313 kg/ha): 6.0
- Preemergence herbicidal rating SETVI (SETVI (Foxtail, Green); rate 0.0625 kg/ha): 9.0
- Preemergence herbicidal rating SETVI (SETVI (Foxtail, Green); rate 0.1250 kg/ha): 9.0
- Preemergence herbicidal rating SETVI (SETVI (Foxtail, Green); rate 0.2500 kg/ha): 9.0
- Preemergence herbicidal rating SETVI (SETVI (Foxtail, Green); rate 0.5000 kg/ha): 9.0
- Preemergence herbicidal rating GLXMAW ([5]; rate 0.0156 kg/ha): 1.5
- Preemergence herbicidal rating GLXMAW ([5]; rate 0.0313 kg/ha): 2.0
- Preemergence herbicidal rating GLXMAW ([5]; rate 0.0625 kg/ha): 5.0
- Preemergence herbicidal rating GLXMAW ([5]; rate 0.1250 kg/ha): 7.5
- Preemergence herbicidal rating GLXMAW ([5]; rate 0.2500 kg/ha): 9.0
- Preemergence herbicidal rating GLXMAW ([5]; rate 0.5000 kg/ha): 9.0
- CYPSE herbicidal effect rating (CYPSE (Flatsedge); 0.0313 kg/ha): 4.5
- CYPSE herbicidal effect rating (CYPSE (Flatsedge); 0.0625 kg/ha): 5.5
- CYPSE herbicidal effect rating (CYPSE (Flatsedge); 0.1250 kg/ha): 9.0
- CYPSE herbicidal effect rating (CYPSE (Flatsedge); 0.2500 kg/ha): 6.5
- SAGPY herbicidal effect rating ([6]; 0.0313 kg/ha): 4.5
- SAGPY herbicidal effect rating ([6]; 0.0625 kg/ha): 7.5
- SAGPY herbicidal effect rating ([6]; 0.1250 kg/ha): 9.0
- SAGPY herbicidal effect rating ([6]; 0.2500 kg/ha): 9.0
- Herbicidal rating ECHORC ([7]; Rate 0.0313 kg/ha): 2.0
- Herbicidal rating ECHORC ([7]; Rate 0.0625 kg/ha): 2.0
- Herbicidal rating ECHORC ([7]; Rate 0.1250 kg/ha): 7.0
- Herbicidal rating ECHORC ([7]; Rate 0.2500 kg/ha): 9.0
